Patent US20230183179A1, “NOVEL CELL METABOLISM MODULATING COMPOUNDS AND USES THEREOF” (CRESCENTA BIOSCIENCES, priority 2020, published 2023)

Tests used:
[1] = target: T1, His6 tagged human recombinant FABP4 (Homo sapiens, UniProt P15090); assay: FABP4 TR-FRET assay: displacement of fluorescent fatty acid BODIPY FL C12; details: inhibition of BODIPY FL C12 binding to His6-FABP4; 1.2 μL of 1.085 mM compound in DMSO per well; triplicates, mean percent inhibition
T1 construct: purchased Cayman Chemicals 10009549
T1 sequence (P15090 whole entry): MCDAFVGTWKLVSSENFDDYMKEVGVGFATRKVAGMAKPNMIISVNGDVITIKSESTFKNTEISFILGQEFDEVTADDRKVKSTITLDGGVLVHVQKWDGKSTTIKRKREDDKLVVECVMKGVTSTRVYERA
In short: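 TR-FRET displacement of BODIPY FL C12 from His6-FABP4 bound by Tb-anti-His6 antibody, in Tris pH 7.4 buffer with γ-globulins, NP-40 and DTT; compound stock 1.085 mM in DMSO. Read after 10 min at room temperature as 520/615 nm ratio; mean % inhibition versus DMSO from triplicates.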

[2] = system: differentiated 3T3-L1 mouse adipocyte cells; assay: Adipocyte glucose consumption in differentiated 3T3-L1 cells (colorimetric glucose assay of the medium); type: cell-based; details: 3T3-L1, 24 h, compound 10 μM, loss of glucose from culture medium, mean fold change (compound/DMSO)
In short: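 Differentiated 3T3-L1 mouse adipocytes (rosiglitazone/dexamethasone/IBMX/insulin induction, day 11) treated 24 h with compounds at 10 μM, 0.1% DMSO final. Medium glucose measured colorimetrically; consumption taken as glucose loss from medium versus cell-free control, expressed as mean fold change compound/DMSO ±SD.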

SMILES	inhibition at 1085 µM (stock) [1]	fold induction at 10 µM [2]
CCCCCCCCc1ccc2nc(N(C)CC(=O)O)cc(-c3ccc(F)cc3)c2c1 [2-{[4-(4-fluorophenyl)-6-octylquinolin-2-yl](methyl)amino}acetic acid]	53.8%	1.28
CCCCCCCCc1ccc2nc(N(CCC)CC(=O)O)cc(-c3ccc(F)cc3)c2c1 [2-{[4-(4-fluorophenyl)-6-octylquinolin-2-yl](propyl)amino}acetic acid]	53.1%	1.2
CCCCCc1ccc2nc(N(C)CC(=O)O)cc(-c3ccc(F)cc3)c2c1 [2-{[4-(4-fluorophenyl)-6-pentylquinolin-2-yl](methyl)amino}acetic acid]	80.9%	1.34
CC(Oc1cc(-c2ccccc2)c2cc(CCc3ccccc3)ccc2n1)C(=O)O (stereo not drawn) [2-{[4-phenyl-6-(2-phenylethyl)quinolin-2-yl]oxy}propanoic acid]	34.1%	1.21
CN(CC(=O)O)c1cc(-c2ccccc2)c2cc(OCc3ccccc3)ccc2n1 [2-{[6-(benzyloxy)-4-phenylquinolin-2-yl](methyl)amino}acetic acid]	84.2%	1.27
CN(CC(=O)O)c1cc(-c2cccc(C(N)=O)c2)c2cc(Br)ccc2n1 [2-{[6-bromo-4-(3-carbamoylphenyl)quinolin-2-yl](methyl)amino}acetic acid]	93.8%	1.1
NC(=O)c1cccc(-c2cc(OCC(=O)O)nc3ccc(Br)cc23)c1 [2-{[6-bromo-4-(3-carbamoylphenyl)quinolin-2-yl]oxy}acetic acid]	19.1%	1
CN(CC(=O)O)c1cc(-c2cccc(C#N)c2)c2cc(Br)ccc2n1 [2-{[6-bromo-4-(3-cyanophenyl)quinolin-2-yl](methyl)amino}acetic acid]	91.1%	1.16
N#Cc1cccc(-c2cc(OCC(=O)O)nc3ccc(Br)cc23)c1 [2-{[6-bromo-4-(3-cyanophenyl)quinolin-2-yl]oxy}acetic acid]	19.9%	0.99
CCCCc1ccc2nc(N(C)CC(=O)O)cc(-c3ccccc3F)c2c1 [2-{[6-butyl-4-(2-fluorophenyl)quinolin-2-yl](methyl)amino}acetic acid]	67%	1.33
CCCCc1ccc2nc(N(C)CC(=O)O)cc(-c3ccccc3O)c2c1 [2-{[6-butyl-4-(2-hydroxyphenyl)quinolin-2-yl](methyl)amino}acetic acid]	93.2%	1.19
CCCCc1ccc2nc(N(C)CC(=O)O)cc(-c3ccccc3C)c2c1 [2-{[6-butyl-4-(2-methylphenyl)quinolin-2-yl](methyl)amino}acetic acid]	99.7%	1.27
CCCCc1ccc2nc(N(C)CC(=O)O)cc(-c3cccc(C(N)=O)c3)c2c1 [2-{[6-butyl-4-(3-carbamoylphenyl)quinolin-2-yl](methyl)amino}acetic acid]	26.1%	1.13
CCCCc1ccc2nc(OCC(=O)O)cc(-c3cccc(C(N)=O)c3)c2c1 [2-{[6-butyl-4-(3-carbamoylphenyl)quinolin-2-yl]oxy}acetic acid]	54.5%	1.15
CCCCc1ccc2nc(N(C)CC(=O)O)cc(-c3cccc(C#N)c3)c2c1 [2-{[6-butyl-4-(3-cyanophenyl)quinolin-2-yl](methyl)amino}acetic acid]	33.2%	1.33
CCCCc1ccc2nc(OCC(=O)O)cc(-c3cccc(C#N)c3)c2c1 [2-{[6-butyl-4-(3-cyanophenyl)quinolin-2-yl]oxy}acetic acid]	36.2%	1.12
CCCCc1ccc2nc(OC(C)C(=O)O)cc(-c3cccc(C#N)c3)c2c1 (stereo not drawn) [2-{[6-butyl-4-(3-cyanophenyl)quinolin-2-yl]oxy}propanoic acid]	12.7%	1.26
CCCCc1ccc2nc(N(C)CC(=O)O)cc(-c3cccc(F)c3)c2c1 [2-{[6-butyl-4-(3-fluorophenyl)quinolin-2-yl](methyl)amino}acetic acid]	58.9%	1.43
CCCCc1ccc2nc(N(C)CC(=O)O)cc(-c3cccc(O)c3)c2c1 [2-{[6-butyl-4-(3-hydroxyphenyl)quinolin-2-yl](methyl)amino}acetic acid]	83.8%	1.28
CCCCc1ccc2nc(N(C)CC(=O)O)cc(-c3cccc(C)c3)c2c1 [2-{[6-butyl-4-(3-methylphenyl)quinolin-2-yl](methyl)amino}acetic acid]	82.4%	1.4

SMILES	inhibition at 1085 µM (stock) [1]	fold induction at 10 µM [2]
CCCCc1ccc2nc(N(C)CC(=O)O)cc(-c3ccc(C#N)cc3)c2c1 [2-{[6-butyl-4-(4-cyanophenyl)quinolin-2-yl](methyl)amino}acetic acid]	16.8%	1.18
CCCCc1ccc2nc(N(C)CC(=O)O)cc(-c3ccc(F)cc3)c2c1 [2-{[6-butyl-4-(4-fluorophenyl)quinolin-2-yl](methyl)amino}acetic acid]	58.6%	1.49
CCCCc1ccc2nc(N(C)CC(=O)O)cc(-c3ccc(O)cc3)c2c1 [2-{[6-butyl-4-(4-hydroxyphenyl)quinolin-2-yl](methyl)amino}acetic acid]	60.5%	1.26
CCCCc1ccc2nc(N(C)CC(=O)O)cc(-c3ccc(C)cc3)c2c1 [2-{[6-butyl-4-(4-methylphenyl)quinolin-2-yl](methyl)amino}acetic acid]	30.8%	1.36
CCCCc1ccc2nc(N(C)CC(=O)O)cc(-c3cccnc3)c2c1 [2-{[6-butyl-4-(pyridin-3-yl)quinolin-2-yl](methyl)amino}acetic acid]	39.2%	1.19
CCCCc1ccc2nc(N(C)CC(=O)O)cc(-c3ccncc3)c2c1 [2-{[6-butyl-4-(pyridin-4-yl)quinolin-2-yl](methyl)amino}acetic acid]	15%	1.28
CCCCCCc1ccc2nc(N(C)CC(=O)O)c(C)c(N3CCOCC3)c2c1 [2-{[6-hexyl-3-methyl-4-(morpholin-4-yl)quinolin-2-yl](methyl)amino}acetic acid]	93.8%	1.17
CCCCCCc1ccc2nc(N(C)CC(=O)O)cc(N3CCOCC3)c2c1 [2-{[6-hexyl-4-(morpholin-4-yl)quinolin-2-yl](methyl)amino}acetic acid]	26.5%	1.31
CCCCCCc1ccc2nc(N(C)CC(=O)O)cc(-c3cccnc3)c2c1 [2-{[6-hexyl-4-(pyridin-3-yl)quinolin-2-yl](methyl)amino}acetic acid]	71.3%	1.28
CCCCCCc1ccc2nc(N(C)CC(=O)O)cc(Oc3cccnc3)c2c1 [2-{[6-hexyl-4-(pyridin-3-yloxy)quinolin-2-yl](methyl)amino}acetic acid]	85%	1.33
CCCCCCc1ccc2nc(N(C)CC(=O)O)cc(-c3ccncc3)c2c1 [2-{[6-hexyl-4-(pyridin-4-yl)quinolin-2-yl](methyl)amino}acetic acid]	51.4%	1.17
CCCCCCc1ccc2nc(OC(C)C(=O)O)cc(-c3ccncc3)c2c1 (stereo not drawn) [2-{[6-hexyl-4-(pyridin-4-yl)quinolin-2-yl]oxy}propanoic acid]	21%	1.3
CCCCCCc1ccc2nc(N(C)CC(=O)O)cc(Oc3ccncc3)c2c1 [2-{[6-hexyl-4-(pyridin-4-yloxy)quinolin-2-yl](methyl)amino}acetic acid]	10.7%	1.02
CCCCCCc1ccc2nc(N(CC)CC(=O)O)cc(-c3ccc(F)cc3)c2c1 [2-{ethyl[4-(4-fluorophenyl)-6-hexylquinolin-2-yl]amino}acetic acid]	78.3%	1.27
CCCCCCCCc1ccc2nc(N(CC)CC(=O)O)cc(-c3ccc(F)cc3)c2c1 [2-{ethyl[4-(4-fluorophenyl)-6-octylquinolin-2-yl]amino}acetic acid]	65.8%	1.25
CCCCCOc1ccc2nc(N(C)CC(=O)O)cc(-c3ccccc3)c2c1 [2-{methyl [6-(pentyloxy)-4-phenylquinolin-2-yl]amino}acetic acid]	102%	1.27
CCCCCCCCc1ccc2nc(N(C)CC(=O)O)cc(Oc3cccnc3)c2c1 [2-{methyl [6-octyl-4-(pyridin-3-yloxy)quinolin-2-yl]amino}acetic acid]	83.6%	1.47
CCCCCCCCc1ccc2nc(N(C)CC(=O)O)cc(Oc3ccncc3)c2c1 [2-{methyl [6-octyl-4-(pyridin-4-yloxy)quinolin-2-yl]amino}acetic acid]	19.4%	1.14
CN(CC(=O)O)c1cc(-c2ccccc2)c2cc(CCc3ccnc4[nH]ccc34)ccc2n1 [2-{methyl[4-phenyl-6-(2-{1H-pyrrolo[2,3-b]pyridin-4-yl}ethyl)quinolin-2-yl]amino}acetic acid]	29.8%	1.26
